Assay results as given in ChEMBL document CHEMBL5653631, “A Potent and Selective ULK1 Inhibitor Suppresses Autophagy and Sensitizes Cancer Cells to Nutrient Stress” (iScience, 2018).
Each block holds one compound with its values, some of them ahead of it.

Tests used:
[1] = target: Tyrosine-protein kinase Tec (Homo sapiens) (UniProt P42680); experiment: Inhibition of human recombinant TEC at 500 nM related to control ULK1
[2] = target: T1, MAPK/MAK/MRK overlapping kinase (Homo sapiens) (UniProt Q9UQ07); experiment: Inhibition of human recombinant MOK at 500 nM related to control ULK1
T1 sequence (whole entry): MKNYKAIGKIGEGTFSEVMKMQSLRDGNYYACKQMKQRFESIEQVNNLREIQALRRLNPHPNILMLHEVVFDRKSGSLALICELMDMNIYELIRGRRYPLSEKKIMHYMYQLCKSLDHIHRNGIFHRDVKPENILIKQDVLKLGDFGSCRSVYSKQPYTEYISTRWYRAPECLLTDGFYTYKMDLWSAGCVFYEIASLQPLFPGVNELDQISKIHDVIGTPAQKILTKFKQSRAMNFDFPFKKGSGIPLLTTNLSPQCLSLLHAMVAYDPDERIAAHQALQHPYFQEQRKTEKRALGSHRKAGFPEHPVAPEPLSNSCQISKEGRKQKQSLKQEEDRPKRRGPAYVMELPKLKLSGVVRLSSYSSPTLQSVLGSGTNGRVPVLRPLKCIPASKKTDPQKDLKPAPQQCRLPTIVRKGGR

[3] = target: Transient receptor potential cation channel subfamily M member 7 (Homo sapiens) (UniProt Q96QT4); experiment: Inhibition of human recombinant ChaK1 at 15 nM related to control ULK1
Transient receptor potential cation channel subfamily M member 7 (Homo sapiens), sequence (Q96QT4 whole entry): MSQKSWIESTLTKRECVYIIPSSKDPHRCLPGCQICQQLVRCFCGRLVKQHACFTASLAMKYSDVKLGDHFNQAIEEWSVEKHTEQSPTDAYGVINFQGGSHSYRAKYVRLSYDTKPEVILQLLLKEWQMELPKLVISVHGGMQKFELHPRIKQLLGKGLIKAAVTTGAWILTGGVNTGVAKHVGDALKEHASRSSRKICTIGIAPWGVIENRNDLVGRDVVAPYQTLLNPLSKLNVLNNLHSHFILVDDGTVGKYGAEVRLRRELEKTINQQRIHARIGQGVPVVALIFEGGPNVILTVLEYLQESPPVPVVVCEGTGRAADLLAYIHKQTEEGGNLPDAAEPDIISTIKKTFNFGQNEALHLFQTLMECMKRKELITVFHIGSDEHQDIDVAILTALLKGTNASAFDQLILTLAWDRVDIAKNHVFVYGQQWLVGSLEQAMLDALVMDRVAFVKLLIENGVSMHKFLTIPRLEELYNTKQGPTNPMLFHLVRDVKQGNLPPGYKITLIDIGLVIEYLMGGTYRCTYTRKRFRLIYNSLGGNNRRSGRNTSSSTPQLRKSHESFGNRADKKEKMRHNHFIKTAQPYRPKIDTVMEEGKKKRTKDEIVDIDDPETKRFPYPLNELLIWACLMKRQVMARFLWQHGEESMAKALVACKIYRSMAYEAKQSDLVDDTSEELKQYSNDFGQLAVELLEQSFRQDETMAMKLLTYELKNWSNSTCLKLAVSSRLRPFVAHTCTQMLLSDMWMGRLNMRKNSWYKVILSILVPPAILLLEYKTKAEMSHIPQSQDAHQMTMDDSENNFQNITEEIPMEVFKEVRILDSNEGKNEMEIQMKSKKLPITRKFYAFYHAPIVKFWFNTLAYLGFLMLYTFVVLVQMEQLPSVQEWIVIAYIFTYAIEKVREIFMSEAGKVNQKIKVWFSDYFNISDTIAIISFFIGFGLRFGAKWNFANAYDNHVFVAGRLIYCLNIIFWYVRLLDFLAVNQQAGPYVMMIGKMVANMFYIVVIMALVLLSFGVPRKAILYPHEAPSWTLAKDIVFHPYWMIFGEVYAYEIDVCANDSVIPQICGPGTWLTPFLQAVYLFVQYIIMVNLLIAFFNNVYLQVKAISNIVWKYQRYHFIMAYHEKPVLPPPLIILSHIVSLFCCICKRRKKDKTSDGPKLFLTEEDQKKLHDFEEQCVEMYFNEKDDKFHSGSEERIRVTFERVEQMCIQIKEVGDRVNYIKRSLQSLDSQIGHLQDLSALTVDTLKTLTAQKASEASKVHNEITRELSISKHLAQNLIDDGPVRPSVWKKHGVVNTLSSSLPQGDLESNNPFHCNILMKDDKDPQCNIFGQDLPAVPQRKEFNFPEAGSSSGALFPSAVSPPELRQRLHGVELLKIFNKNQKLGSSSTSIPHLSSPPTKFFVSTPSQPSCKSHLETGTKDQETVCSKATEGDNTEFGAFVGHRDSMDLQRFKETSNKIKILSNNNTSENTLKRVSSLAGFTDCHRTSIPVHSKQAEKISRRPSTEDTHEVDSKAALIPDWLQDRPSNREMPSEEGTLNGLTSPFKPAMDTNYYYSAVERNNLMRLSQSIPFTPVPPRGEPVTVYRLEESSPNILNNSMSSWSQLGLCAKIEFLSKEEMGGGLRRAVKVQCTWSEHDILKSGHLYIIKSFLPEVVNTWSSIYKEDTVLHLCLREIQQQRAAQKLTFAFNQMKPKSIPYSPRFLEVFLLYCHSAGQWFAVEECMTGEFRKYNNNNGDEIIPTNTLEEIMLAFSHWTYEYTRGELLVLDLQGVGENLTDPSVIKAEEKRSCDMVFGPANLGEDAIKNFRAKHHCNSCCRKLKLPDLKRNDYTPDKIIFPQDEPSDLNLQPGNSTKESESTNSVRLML

[4] = target: T2, Ephrin type-B receptor 1 (Homo sapiens) (UniProt P54762); experiment: Inhibition of human recombinant EphB1 at 15 nM related to control ULK1
T2 sequence (whole entry): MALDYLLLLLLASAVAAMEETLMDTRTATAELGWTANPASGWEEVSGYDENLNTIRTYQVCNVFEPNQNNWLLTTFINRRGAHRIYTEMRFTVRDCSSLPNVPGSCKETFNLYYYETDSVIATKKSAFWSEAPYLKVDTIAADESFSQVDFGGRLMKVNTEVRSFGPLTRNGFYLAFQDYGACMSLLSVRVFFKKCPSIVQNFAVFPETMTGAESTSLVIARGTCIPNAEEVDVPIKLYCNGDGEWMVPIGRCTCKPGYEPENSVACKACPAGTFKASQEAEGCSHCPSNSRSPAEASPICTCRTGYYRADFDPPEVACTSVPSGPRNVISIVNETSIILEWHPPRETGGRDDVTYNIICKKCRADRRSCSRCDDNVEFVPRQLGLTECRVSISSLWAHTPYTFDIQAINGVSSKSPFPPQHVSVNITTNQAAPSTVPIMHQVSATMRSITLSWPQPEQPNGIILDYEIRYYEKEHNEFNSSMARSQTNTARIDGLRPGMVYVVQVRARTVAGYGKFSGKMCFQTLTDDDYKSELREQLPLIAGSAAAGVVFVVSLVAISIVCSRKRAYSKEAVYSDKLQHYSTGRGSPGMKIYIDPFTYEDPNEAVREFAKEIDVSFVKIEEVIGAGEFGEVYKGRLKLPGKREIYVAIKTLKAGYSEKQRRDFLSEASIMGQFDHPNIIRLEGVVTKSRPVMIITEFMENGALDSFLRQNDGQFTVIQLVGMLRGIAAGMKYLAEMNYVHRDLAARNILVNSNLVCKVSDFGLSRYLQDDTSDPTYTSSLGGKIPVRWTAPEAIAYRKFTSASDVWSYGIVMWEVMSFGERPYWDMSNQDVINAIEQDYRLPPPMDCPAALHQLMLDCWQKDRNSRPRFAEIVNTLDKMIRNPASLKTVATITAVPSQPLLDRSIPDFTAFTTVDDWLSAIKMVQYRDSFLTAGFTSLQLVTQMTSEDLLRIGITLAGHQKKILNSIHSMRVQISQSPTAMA

[5] = target: Fibroblast growth factor receptor 1 (Homo sapiens) (UniProt P11362); experiment: Inhibition of human recombinant FGFR1 at 15 nM in presence of ATP by radiometric assay relative to control
Fibroblast growth factor receptor 1 (Homo sapiens), sequence (P11362 22-822 limits assumed): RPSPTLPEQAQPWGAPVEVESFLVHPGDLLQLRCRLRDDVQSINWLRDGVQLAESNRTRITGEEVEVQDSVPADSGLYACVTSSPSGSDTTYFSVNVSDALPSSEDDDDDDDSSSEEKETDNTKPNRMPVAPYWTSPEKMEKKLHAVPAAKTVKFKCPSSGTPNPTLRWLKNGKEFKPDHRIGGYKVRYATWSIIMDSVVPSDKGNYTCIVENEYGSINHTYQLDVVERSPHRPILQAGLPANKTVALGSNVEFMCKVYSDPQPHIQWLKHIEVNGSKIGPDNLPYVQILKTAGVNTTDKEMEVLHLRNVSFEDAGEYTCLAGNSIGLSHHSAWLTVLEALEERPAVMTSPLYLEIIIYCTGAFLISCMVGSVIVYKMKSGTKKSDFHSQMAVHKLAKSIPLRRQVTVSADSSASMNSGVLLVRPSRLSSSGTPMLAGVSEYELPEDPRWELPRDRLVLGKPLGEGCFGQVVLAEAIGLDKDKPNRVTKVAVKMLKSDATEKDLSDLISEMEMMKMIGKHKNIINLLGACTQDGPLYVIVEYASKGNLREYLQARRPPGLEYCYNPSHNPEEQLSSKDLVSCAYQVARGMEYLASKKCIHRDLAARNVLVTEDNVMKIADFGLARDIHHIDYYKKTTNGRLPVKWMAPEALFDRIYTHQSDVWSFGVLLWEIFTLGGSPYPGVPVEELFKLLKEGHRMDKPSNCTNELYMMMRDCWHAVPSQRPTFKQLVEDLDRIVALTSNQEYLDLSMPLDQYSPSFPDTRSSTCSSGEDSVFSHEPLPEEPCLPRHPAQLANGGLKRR

[6] = target: Casein kinase II subunit alpha' (Homo sapiens) (UniProt P19784); experiment: Inhibition of human recombinant CK2a2 at 15 nM related to control ULK1
Casein kinase II subunit alpha' (Homo sapiens), sequence (P19784 whole entry, looked up): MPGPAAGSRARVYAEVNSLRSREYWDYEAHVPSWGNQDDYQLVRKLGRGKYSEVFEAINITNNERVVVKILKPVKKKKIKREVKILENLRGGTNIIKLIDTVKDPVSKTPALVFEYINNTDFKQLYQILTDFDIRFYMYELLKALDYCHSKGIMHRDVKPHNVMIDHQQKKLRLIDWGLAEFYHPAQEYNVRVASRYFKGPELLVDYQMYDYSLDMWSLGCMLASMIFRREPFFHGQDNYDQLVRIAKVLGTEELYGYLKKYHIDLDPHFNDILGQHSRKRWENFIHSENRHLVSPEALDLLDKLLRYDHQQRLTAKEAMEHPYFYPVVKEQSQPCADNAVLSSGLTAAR

[7] = target: Receptor-interacting serine/threonine-protein kinase 2 (Homo sapiens) (UniProt O43353); experiment: Inhibition of human recombinant RIPK2 at 15 nM in presence of ATP by radiometric assay relative to control
Receptor-interacting serine/threonine-protein kinase 2 (Homo sapiens), sequence (O43353 whole entry): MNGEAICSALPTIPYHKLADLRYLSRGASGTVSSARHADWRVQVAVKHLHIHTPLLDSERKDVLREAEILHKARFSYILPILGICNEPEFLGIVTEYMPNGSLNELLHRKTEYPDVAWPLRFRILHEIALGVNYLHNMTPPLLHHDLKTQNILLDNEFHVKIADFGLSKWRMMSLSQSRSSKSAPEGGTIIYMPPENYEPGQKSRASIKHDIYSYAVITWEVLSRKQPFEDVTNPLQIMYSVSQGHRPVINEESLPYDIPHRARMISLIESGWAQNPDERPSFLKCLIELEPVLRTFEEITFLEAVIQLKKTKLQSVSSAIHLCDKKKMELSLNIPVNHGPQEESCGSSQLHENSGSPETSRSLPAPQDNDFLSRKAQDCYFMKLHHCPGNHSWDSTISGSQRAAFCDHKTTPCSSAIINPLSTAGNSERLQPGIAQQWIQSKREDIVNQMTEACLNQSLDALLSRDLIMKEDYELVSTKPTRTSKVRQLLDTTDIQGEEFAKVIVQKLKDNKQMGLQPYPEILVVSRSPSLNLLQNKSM

[8] = target: Serine/threonine-protein kinase WNK1 (Homo sapiens) (UniProt Q9H4A3); experiment: Inhibition of human recombinant Wnk1 at 40 nM in presence of ATP by radiometric assay relative to control
[9] = target: T3, Serine/threonine-protein kinase DCLK2 (Homo sapiens) (UniProt Q8N568); experiment: Inhibition of human recombinant DCAMKL2 at 40 nM in presence of ATP by radiometric assay relative to control
T3 sequence (whole entry): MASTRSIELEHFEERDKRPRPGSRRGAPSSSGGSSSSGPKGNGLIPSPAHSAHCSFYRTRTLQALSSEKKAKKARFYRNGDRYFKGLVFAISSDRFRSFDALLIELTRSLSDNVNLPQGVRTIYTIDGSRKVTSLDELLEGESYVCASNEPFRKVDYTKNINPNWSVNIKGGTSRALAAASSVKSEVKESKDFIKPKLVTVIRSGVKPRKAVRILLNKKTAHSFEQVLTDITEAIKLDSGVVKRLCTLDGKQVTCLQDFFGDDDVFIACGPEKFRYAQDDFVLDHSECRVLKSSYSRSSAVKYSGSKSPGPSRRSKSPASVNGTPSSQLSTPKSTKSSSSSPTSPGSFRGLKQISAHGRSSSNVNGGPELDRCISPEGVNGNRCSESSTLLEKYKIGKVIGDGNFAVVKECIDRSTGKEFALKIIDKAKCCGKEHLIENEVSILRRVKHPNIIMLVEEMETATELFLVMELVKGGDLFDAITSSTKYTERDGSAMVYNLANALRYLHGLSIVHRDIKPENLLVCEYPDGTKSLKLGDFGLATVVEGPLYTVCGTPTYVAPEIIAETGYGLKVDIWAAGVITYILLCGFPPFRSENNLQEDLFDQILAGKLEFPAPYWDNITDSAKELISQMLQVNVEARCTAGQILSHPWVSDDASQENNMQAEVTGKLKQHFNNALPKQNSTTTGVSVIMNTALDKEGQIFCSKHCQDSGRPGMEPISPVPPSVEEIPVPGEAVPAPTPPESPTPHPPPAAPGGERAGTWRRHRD

Tyrosine-protein kinase Tec (Homo sapiens), sequence (P42680 whole entry, looked up): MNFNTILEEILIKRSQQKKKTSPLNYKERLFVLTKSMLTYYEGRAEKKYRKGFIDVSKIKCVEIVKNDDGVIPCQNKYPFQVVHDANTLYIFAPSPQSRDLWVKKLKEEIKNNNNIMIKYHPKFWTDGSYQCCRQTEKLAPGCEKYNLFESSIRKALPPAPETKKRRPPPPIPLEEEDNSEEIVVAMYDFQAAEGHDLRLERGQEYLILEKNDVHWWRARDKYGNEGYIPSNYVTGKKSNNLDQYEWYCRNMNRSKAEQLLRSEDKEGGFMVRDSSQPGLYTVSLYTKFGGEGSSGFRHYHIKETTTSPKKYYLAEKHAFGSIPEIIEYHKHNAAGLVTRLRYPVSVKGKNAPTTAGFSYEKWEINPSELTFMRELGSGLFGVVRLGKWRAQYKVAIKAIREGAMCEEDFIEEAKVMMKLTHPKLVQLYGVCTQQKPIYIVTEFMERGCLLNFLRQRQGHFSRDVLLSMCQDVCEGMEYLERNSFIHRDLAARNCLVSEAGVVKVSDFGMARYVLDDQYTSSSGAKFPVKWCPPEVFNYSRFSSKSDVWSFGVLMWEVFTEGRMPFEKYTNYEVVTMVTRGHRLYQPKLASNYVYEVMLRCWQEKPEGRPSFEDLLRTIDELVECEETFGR

- fold change (FC) [1]: 0.03
- fold change (FC) [2]: 0.03
Compound: CNC(=O)c1ccccc1Oc1nc(Nc2cc(OC)c(OC)c(OC)c2)ncc1Br

- fold change (FC) [3]: 0.14
- fold change (FC) [4]: 0.14
- inhibition [5]: 0%
- fold change (FC) [6]: 0.06
- inhibition [7]: 10%
Compound: CC(C)[C@H](NC(=O)c1cc(-c2cnn3cc(-c4ccc(OCCN5CCCCC5)cc4)cnc23)cs1)C(F)(F)F

- inhibition [8]: 12%
- inhibition [9]: 0%
Compound: O=C(N[C@@H](C1CC1)C(F)(F)F)c1cc(-c2cnn3cc(-c4ccc(F)cc4)cnc23)cs1
